Source: US5354748A, “Oral antibacterial compositions and method for the improvement of gastrointestinal absorption of penem or carbapenem antibiotics” (Suntory Limited, priority 1991, dated 1994)
Read-outs that look alike come from different tables or passages of the source.

Experiment: Plasma concentration of penem in rats, oral penem with oral cilastatin (Example 5)
Format: in vivo, Sprague-Dawley male rats
Conditions: rat; for AUC at 1.5 h / Cmax: plasma, po, 57.1 mg/kg, oral 57.1 mg (titer)/Kg; for Cmax: read-out: Highest concentration in plasma
Experimental: Seven-week-old Sprague-Dawley male rats were orally administered with 57.1 mg (titer)/Kg of sodium (1'R,2"R,5R,6S)-6-(1'-hydroxyethyl)-2-(2"-tetrahydrofuranyl)penem-3-carboxylate 2.5 hydrate. At the same time, cilastatin was orally administered at 7.17, 0.717 or 0.0717 mg/Kg. The blood was collected during the period of from 0.1 to 1.5 hours after the administration. The concentrations of the free acid of the penem in plasma samples were measured by high performance liquid chromatography (HPLC) to determine the highest concentration in plasma and the area under the plasma concentration:time curve (AUC).

With `C[C@@H](O)[C@H]1C(=O)N2C(C(=O)O)=C([C@H]3CCCO3)S[C@H]12` [sodium (1'R,2"R,5R,6S)-6-(1'-hydroxyethyl)-2-(2"-tetrahydrofuranyl)penem-3-carboxylate 2.5 hydrate] the “Increase of AUC relative to single administration” value (oral, at each cilastatin dosage (7.17, 0.717, 0.0717 mg/Kg)) was 2.8-4.8 times, the AUC at 1.5 h (cilastatin 0 (penem alone)) was 4420 ng·h/mL and the Cmax (cilastatin 0 (penem alone)) was 4810 ng/mL. The AUC at 1.5 h (cilastatin 0.0717 mg/Kg oral) was 12200 ng·h/mL, the Cmax (cilastatin 0.0717 mg/Kg oral) was 6890 ng/mL and the AUC at 1.5 h (cilastatin 0.717 mg/Kg oral) was 21100 ng·h/mL. The Cmax (cilastatin 0.717 mg/Kg oral) was 8680 ng/mL, the AUC at 1.5 h (cilastatin 7.17 mg/Kg oral) was 19600 ng·h/mL and the Cmax (cilastatin 7.17 mg/Kg oral) was 12700 ng/mL.
